Like-named read-outs stand apart in the source and are kept apart here.
Columns and labels:
[1] = test system: DU-145 prostate cancer cells; assay: MTT cytotoxicity assay, DU-145; format: cell-based, human; conditions: Homo sapiens, DU-145, 72 h, 72 h incubation, mean ± SEM of three experiments, read-out: Cytotoxicity (GI50) against DU-145
Protocol: (§1) The cytotoxicity of the synthesized series of 4-substituted 5, 13–17, 22, 23, 2-substituted 25–30 and 2,4-disubstituted 1-hydroxy-9,10-anthraquinones 33–38, 40–45 was evaluated against a panel of seven different human cancer cell lines (glioblastoma cancer cells, human prostate cancer cells, T-cellular human leucosis, breast cancer cells) and also a normal cell line of hTERT-immortalized lung fibroblasts, using conventional MTT assay. Doxorubicin (DOX) is clinically used to treat cancer as drug in world and have a very wide antitumor spectrum. That we use them as positive control compounds. The cytotoxicity was determined by measuring the concentration inhibiting human tumor cell viability by 50% (GI50).
(§2) The human cancer cells of the glioblastoma (U-87MG, SNB-19, T98G), prostate cancer cell line (LNCAP, DU-145), the cells of T-cellular human leucosis (MT-4) and human breast cancer cells (MDA-MB-231) were used in this study. The cells were cultured in the RPMI-1640 medium that contained 10% embryonic calf serum, L-glutamine (2 mmol/L), gentamicin ([…]) and lincomycin (30 mkg/mL) in a CO2 incubator at 37 °C. The tested compounds were dissolved in DMSO and added to the cellular culture at the required concentrations. Three wells were used for each concentration. The cells which were incubated without the compounds were used as a control. Cells were placed on 96-well microliter plates and cultivated at 37 °C in 5% CO2/95% air for 72 h. The cell viability was assessed through an MTT [3-(4,5-dimethylthiazol-2-yl)-[…]-2H-tetrazolium bromide] conversion assay. A total of 1% MTT was added to each well. Four hours later, DMSO was added and mixed for 15 min. Optical density (D) of the samples was measured on a BioRad 680 multi-well spectrophotometer (USA) at the wavelength of 450 nm. The 50% cytotoxic dose GI50) of each compound (i.e., the compound concentration that causes the death of 50% of cells in a culture, or decreases the optical density twice as compared to the control wells) was calculated from the data obtained. Statistical processing of the results was performed using the Microsoft Excel-2007, […] 6.0 and GraphPad Prism 5.0 programs. The results are given as an average value ± a deviation from the average (mean ± standard error of the mean (SEM)). Reliability of differences (p) was estimated using the Student t test. The differences with p < 0.05 were considered as reliable. The experimental results are given as the data average values obtained from three independently conducted experiments.

[2] = MTT cytotoxicity assay, normal hTERT-immortalized lung fibroblasts; format: cell-based; conditions: human, hTERT-immortalized lung fibroblasts (normal cell line), 72 h incubation, mean ± SEM of three experiments, read-out: Cytotoxicity (GI50) against hTERT Lung Fibroblasts
Protocol: as §1, §2

[3] = test system: U-87MG glioblastoma cells; assay: MTT cytotoxicity assay, U-87MG; format: cell-based; conditions: Homo sapiens, 72 h incubation, mean ± SEM of three experiments, read-out: Cytotoxicity (GI50) against U-87MG
Protocol: as §1, §2

[4] = test system: MDA-MB-231 breast cancer cells; assay: MTT cytotoxicity assay, MDA-MB-231; format: cell-based; conditions: Homo sapiens, 72 h incubation, mean ± SEM of three experiments, read-out: Cytotoxicity (GI50) against MDA-MB-231
Protocol: as §1, §2

[5] = test system: LNCAP prostate cancer cells; assay: MTT cytotoxicity assay, LNCAP; format: cell-based, human; conditions: 72 h incubation, mean ± SEM of three experiments, read-out: Cytotoxicity (GI50) against LNCAP
Protocol: as §1, §2

T98G glioblastoma cells = assay: MTT cytotoxicity assay, T98G; format: cell-based; conditions: Homo sapiens, 72 h incubation, mean ± SEM of three experiments, read-out: Cytotoxicity (GI50) against T98G
Protocol: as §1, §2

[6] = test system: SNB-19 glioblastoma cells; assay: MTT cytotoxicity assay, SNB-19; format: cell-based; conditions: Homo sapiens, 72 h incubation, mean ± SEM of three experiments, read-out: Cytotoxicity (GI50) against SNB-19
Protocol: as §1, §2

[7] = test system: MT-4 cells of T-cellular human leucosis; assay: MTT cytotoxicity assay, MT-4; format: cell-based; conditions: MT4, 72 h incubation, mean ± SEM of three experiments, read-out: Cytotoxicity (GI50) against MT-4
Protocol: as §1, §2

| melting point | SMILES | GI50 [1] | GI50 at 72 h [2] | GI50 [3] | GI50 [4] | GI50 ([5]; Homo sapiens, LNCaP, 72 h) | GI50 (T98G glioblastoma cells) | GI50 [6] | GI50 [7] | GI50 [5] |
| --- | --- | --- | --- | --- | --- | --- | --- | --- | --- | --- |
| 230.5 °C (dec.) | COc1cc(-c2ccc(O)c3c2C(=O)c2ccccc2C3=O)cc(OC)c1OC [Compound 5, 1-Hydroxy-4-(3,4,5-trimethoxyphenyl)anthracene-9,10-dione] | 14.8 ± 0.52 µM | 28.6 ± 4.54 µM | > 100 µM | 28.6 ± 1.24 µM | 21.1 ± 0.85 µM | 72.5 ± 3.21 µM | 6.7 ± 0.47 µM | 42 ± 4.14 µM | – |
| – | Cc1ccccc1-c1ccc(O)c2c1C(=O)c1ccccc1C2=O [Compound 14, 1-Hydroxy-4-(o-tolyl)anthracene-9,10-dione] | 41.1 ± 3.34 µM | > 100 µM | > 100 µM | > 100 µM | 92 ± 3.93 µM | > 100 µM | 38.1 ± 1.15 µM | 65 ± 5.49 µM | – |
| 214.2 to 214.3 °C | O=C1c2ccccc2C(=O)c2c(-c3cc(F)cc(F)c3)ccc(O)c21 [Compound 17, 1-(3,5-Difluorophenyl)-4-hydroxyanthracene-9,10-dione] | 3.5 ± 0.96 µM | 26.6 ± 2.44 µM | 8.2 ± 1.35 µM | 9.6 ± 0.69 µM | 16.7 ± 1.34 µM | 9.2 ± 0.56 µM | 10.2 ± 0.86 µM | 38.3 ± 3.16 µM | – |
| 184.3 °C (dec.) | O=C1c2ccccc2C(=O)c2c(-c3cc(C(F)(F)F)ccc3Cl)ccc(O)c21 [Compound 18, 1-(2-Chloro-5-(trifluoromethyl)phenyl)-4-hydroxyanthracene-9,10-dione] | – | – | – | – | – | – | – | – | – |
| 186 °C (dec.) | O=C1c2ccccc2C(=O)c2c(-c3ccc(Cl)cc3C(F)(F)F)ccc(O)c21 [Compound 19, 1-(4-Chloro-2-(trifluoromethyl)phenyl)-4-hydroxyanthracene-9,10-dione] | – | – | – | – | – | – | – | – | – |
| 141.8 °C (dec.) | O=C1c2ccccc2C(=O)c2c(-c3ccco3)ccc(O)c21 [Compound 22, 1-(Furan-2-yl)-4-hydroxyanthracene-9,10-dione] | 24.2 ± 1.32 µM | 52.2 ± 8.01 µM | > 100 µM | > 100 µM | 21.1 ± 0.85 µM | > 100 µM | > 100 µM | > 100 µM | – |
| 190.1 °C (dec.) | COc1cc(-c2ccc3c(c2O)C(=O)c2ccccc2C3=O)cc(OC)c1OC [Compound 24, 1-Hydroxy-2-(3,4,5-trimethoxyphenyl)anthracene-9,10-dione] | – | – | – | – | – | – | – | – | – |
| 148.5 °C (dec.) | Cc1ccccc1-c1ccc2c(c1O)C(=O)c1ccccc1C2=O [Compound 26, 1-Hydroxy-2-(o-tolyl)anthracene-9,10-dione] | 70.2 ± 1.47 µM | 87.5 ± 9.11 µM | > 100 µM | > 100 µM | 74 ± 3.74 µM | > 100 µM | > 100 µM | 80 ± 5.21 µM | – |
| 264.3 °C (dec.) | O=C1c2ccccc2C(=O)c2c1ccc(-c1cc(F)cc(F)c1)c2O [Compound 29, 2-(3,5-Difluorophenyl)-1-hydroxyanthracene-9,10-dione] | 13.8 ± 1.05 µM | 28.1 ± 2.12 µM | 34.1 ± 2.18 µM | 35.2 ± 1.88 µM | 36.2 ± 2.05 µM | 29.6 ± 2.21 µM | 15.3 ± 0.71 µM | 36.6 ± 1.68 µM | – |
| 188.5 °C (dec.) | O=C1c2ccccc2C(=O)c2c1ccc(-c1cc(C(F)(F)F)ccc1Cl)c2O [Compound 30, 2-(2-Chloro-5-(trifluoromethyl)phenyl)-1-hydroxyanthracene-9,10-dione] | 12.5 ± 3.17 µM | 25.6 ± 5.24 µM | 21.6 ± 1.42 µM | 39.1 ± 1.71 µM | > 100 µM | 39.2 ± 1.65 µM | 16.8 ± 2.11 µM | 55.1 ± 3.24 µM | – |
| 214.9 °C (dec.) | COc1cc(-c2cc(-c3cc(OC)c(OC)c(OC)c3)c3c(c2O)C(=O)c2ccccc2C3=O)cc(OC)c1OC [Compound 32, 1-Hydroxy-2,4-di-(3,4,5-trimethoxyphenyl)anthracene-9,10-dione] | – | – | – | – | – | – | – | – | – |
| 225 to 228 °C | O=C1c2ccccc2C(=O)c2c(O)c(-c3ccccc3)cc(-c3ccccc3)c21 [Compound 33, 1-Hydroxy-2,4-diphenylanthracene-9,10-dione] | > 100 µM | 52.8 ± 8.05 µM | 56.8 ± 2.36 µM | 28.3 ± 1.06 µM | 21.3 ± 1.16 µM | 24.6 ± 0.85 µM | 18.3 ± 1.12 µM | > 100 µM | – |
| 119.8 °C (dec.) | Cc1ccccc1-c1cc(-c2ccccc2C)c2c(c1O)C(=O)c1ccccc1C2=O [Compound 34, 1-Hydroxy-2,4-di-o-tolylanthracene-9,10-dione] | > 100 µM | 72.2 ± 4.18 µM | > 100 µM | > 100 µM | > 100 µM | > 100 µM | > 100 µM | > 100 µM | – |
| 192.9 °C (dec.) | COc1cccc(-c2cc(-c3cccc(OC)c3OC)c3c(c2O)C(=O)c2ccccc2C3=O)c1OC [Compound 36, 2,4-Di-(2,3-dimethoxyphenyl)-1-hydroxyanthracene-9,10-dione] | 10.6 ± 1.12 µM | 12.2 ± 2.08 µM | 36.8 ± 1.42 µM | 22.6 ± 0.86 µM | 16.7 ± 1.86 µM | 15.5 ± 0.92 µM | 37 ± 1.41 µM | 25.8 ± 0.94 µM | – |
| 263.3 °C (dec.) | O=C1c2ccccc2C(=O)c2c(O)c(-c3cc(F)cc(F)c3)cc(-c3cc(F)cc(F)c3)c21 [Compound 37, 2,4-Di-(3,5-difluorophenyl)-1-hydroxyanthracene-9,10-dione] | 5.8 ± 0.38 µM | 10.5 ± 1.98 µM | 8.7 ± 0.89 µM | 8.2 ± 0.96 µM | 6.2 to 7.2 µM | 10.1 ± 0.78 µM | 9.1 ± 0.68 µM | 56.6 ± 1.28 µM | 6.2 ± 0.43 µM |
| – | O=C1c2ccccc2C(=O)c2c(O)c(-c3cc(C(F)(F)F)ccc3Cl)cc(-c3cc(C(F)(F)F)ccc3Cl)c21 [Compound 38, 2,4-Di-(2-chloro-5-(trifluoromethyl)phenyl)-1-hydroxyanthracene-9,10-dione] | 6.5 ± 0.89 µM | 19.4 ± 0.97 µM | > 100 µM | 32.5 ± 5.37 µM | > 100 µM | 7.8 ± 0.56 µM | 39.4 ± 2.16 µM | > 100 µM | – |
| 150 to 152 °C | O=C1c2ccccc2C(=O)c2c(O)c(-c3ccc(Cl)cc3C(F)(F)F)cc(-c3ccc(Cl)cc3C(F)(F)F)c21 [Compound 39, 2,4-Di-(4-Chloro-2-(trifluoromethyl)phenyl)-1-hydroxyanthracene-9,10-dione] | – | – | – | – | – | – | – | – | – |
| 187.1 °C (dec.) | COc1ccc(-c2cc(Br)c3c(c2O)C(=O)c2ccccc2C3=O)cc1 [Compound 40, 4-Bromo-1-hydroxy-2-(4-methoxyphenyl)anthracene-9,10-dione] | 7.1 ± 0.72 µM | 16.5 ± 0.46 µM | 10.2 ± 1.03 µM | 10.5 ± 1.03 µM | 22.2 ± 1.26 µM | 8.1 ± 0.98 µM | 6.1 ± 0.38 µM | 35.6 ± 3.28 µM | – |
| – | COc1ccc(-c2cc(-c3cc(OC)c(OC)c(OC)c3)c(O)c3c2C(=O)c2ccccc2C3=O)cc1 [Compound 44, 1-Hydroxy-4-(4-methoxyphenyl)-2-(3,4,5-trimethoxyphenyl)anthracene-9,10-dione] | 15.2 ± 1.06 µM | 36.2 ± 1.31 µM | > 100 µM | 19.1 ± 0.98 µM | 14.2 ± 3.12 µM | 16.5 ± 1.26 µM | 41.8 ± 5.27 µM | 40.5 ± 6.44 µM | – |

From article PMC7321108, “1-Hydroxyanthraquinones Containing Aryl Substituents as Potent and Selective Anticancer Agents” (Molecules, 2020)
